Assay results: patent publication US7985774B2, “Use of 3,5-seco-4-nor-cholestane derivatives for obtaining a cytoprotective drug” (Trophos, priority 2006, dated 2011)

Legend:
C57BL6 mice = experiment: In vivo model of myocardium infarction (coronary occlusion-reperfusion)
Procedure: The purpose of this experiment is to study in vivo the cardioprotective properties of the compounds, 3,5-seco-4-nor-cholestan-5-one oxime-3-ol and 3,5-seco-4-nor-cholestan-5-one oxime-3-N,N-dimethylglycine ester, in a murine coronary occlusion-reperfusion model.
The compounds to be tested are administered intravenously in mice, 5 minutes before reperfusion of the myocardium ischemiated beforehand. As controls, carriers of the compounds beta-cyclodextrin (hereafter called βCD) and water, respectively, are administered under the same conditions as for the compounds.
In order to determine the effect of the tested compounds, the size of the infarction is measured after 24 hour reperfusion.
6-8 week old male C57BL6 mice are anaesthetized with sodium pentobarbital (50 mg/kg i.p.) and are ventilated after intubation with an O2/CO2 (95%/5%) mixture throughout the experiment. The surface electrocardiogram (ECG) is recorded and viewed on an oscilloscope all along surgery. Under strict asepsis conditions, the jugular vein is catheterized for intravenous administration of the compounds. A left lateral thoracotomy is performed and after pericardiotomy, a major branch of the left coronary artery is localized in the latero-posterior region of the left ventricle. A prolene no. 8 suture is positioned around this artery so as to form a mobile loop for making a temporary coronary occlusion.
All the mice were subject to a 30 minute temporary coronary occlusion. Ischemia of the myocardium region is confirmed by cyanosis of the myocardium surface and a deviation of the ST segment of the electrocardiogram.
Each of the compounds (treated group, n=10) or its solvent (control group, n=10) was administered as a bolus intravenously, 5 min before lifting the 30 minutes of coronary occlusion.
3,5-seco-4-nor-cholestan-5-one oxime-3-ol, dissolved beforehand to a final concentration of 0.46 mg/ml in a 30% βCD solution in phosphate buffer prepared by saturation followed by centrifugation, is administered at a dosage of 1 mg/kg.
3,5-seco-4-nor-cholestan-5-one oxime-3-N,N-dimethylglycine ester, dissolved beforehand to a final concentration of 1.56 mg/ml in sterile water by stirring and sonication, is administered at a dosage of 3.9 mg/kg.
The same volume of carrier is administered in the corresponding control groups.
Twenty four hours after the end of coronary occlusion, the mice are re-anaesthetized with sodium pentobarbital (50 mg/kg i.p.) and heparin is administered intravenously (Choay© heparin 1,000 IU/kg). A ligature of the coronary artery is achieved at the same location having been subject to the first occlusion 24 h previously. The mice are then euthanized with a lethal saturated dose of potassium chloride and their heart is rapidly excised and then mounted through the aorta artery on a retrograde perfusion system of the Langendorff type.
A 5% Evans blue solution is perfused retrogradely so that the healthy myocardium is colored in blue; the area made ischemic during the coronary occlusion, or <<area of risk AR>> remaining uncolored by default.
The left ventricle is then cut out into 5 slices with equal thicknesses (1 mm) by means of a slicer specially designed for hearts of mice (Les Isolants de Paris, Palaiseau), which are then weighed.
These slices are incubated in a 1% triphenyltetrazolium chloride solution (TTC, Sigma, Poole, UK) at pH 7.4 for 20 min at 37° C. and then set in 4% formol. TTC has the property of coloring the non-infarcted myocardium in red, and so showing the infarcted areas in white. Each heart slice is placed under a stereo microscope for taking a high definition digital photograph.
Quantification of infarction and the area of risk is carried out by planimetry (Scion Image, Scion, Frederick Md., USA) and referred to the weight of each slice.
The area of risk (non-blue area) is expressed as a percentage of the weight of the left ventricle. The infarction sizes are expressed as a percentage of the weight of the area of risk. […]

[1] = test system: rabbit ventricular cardiomyocytes; experiment: Contractile dysfunction test induced by doxorubicin (sarcomer shortening); format: cell-based; details: doxorubicin 1 μM alone, after 4 hrs of exposure; control −19.49±2.06%
Procedure: A stock solution of 3,5-seco-4-nor-cholestan-5-one oxime-3-ol at a concentration of 10 mM in 100% DMSO was used.
The final concentration in DMSO was the same for all the experimental points, independently of the molecular concentrations used.
3,5-seco-4-nor-cholestan-5-one oxime-3-ol was tested at concentrations of 0.1 and 0.3 μM, diluted in a Tyrode solution (composition in mmol/L: NaCl 135, KCl 5.4, NaH2PO4 0.33, CaCl2 1.2, MgCl2 1.0, Hepes 10; pH adjusted to 7.4 with NaOH).
Isolated ventricular cells are obtained from hearts of male New Zealand rabbits as described in A. d'Anglemont de Tassigny et al., Fund. Clin. Pharmacol, 18: 531-38, 2004. Briefly, the rabbits (2.0-2.5 kg) are anaesthetized with a pentobarbital solution (50 mg/kg) and they then receive heparin (200 IU/kg). The hearts are excised and immediately perfused, for 10-15 minutes by means of a Langendorff apparatus without recirculation with an oxygenated tyrode (calcium-free) isotonic solution (95%, 2-5% CO2) (in mM: NaCl 135, KCl 5.4, Na2PO4 0.33, MgCl2 1.0, HEPES 10, pH adjusted to 7.4 with 1N NaOH at 37° C., 280-300 mOsmol/kgH2O). […]
The myocytes were selected for the study according to the following criterion: a rod-like aspect with very apparent striations and no intracellular vacuola, no spontaneous contraction when they are stimulated with 1 mM Ca^2+, and with constant rest length and contraction amplitude. The length of the sarcomers was measured by means of a video image analysis program and the data were acquired at a rate of 240 samples/s. […]
(§1) Apoptosis is induced in isolated cardiomyocytes by 3-8 hour exposure to 1 μM of doxorubicin added into an isotonic solution containing (in mM) NaCl 110, KCl 5.4, Na2PO4 0.33, NaHCO3 25, glucose 5, MgCl2 0.8, CaCl2 1, pH adjusted to 7.4. […] The contractility of cardiomyocytes was measured every hour during the 8 hrs of exposure to doxorubicin. […]

[2] = test system: rabbit ventricular cardiomyocytes; experiment: Annexin V marking of phosphatidylserine (apoptosis) after doxorubicin; format: cell-based; details: doxorubicin 1 μM alone, 3 hrs; control 100%
Procedure: (§2) Isolated ventricular cells are obtained from hearts of male New Zealand rabbits as described in A. d'Anglemont de Tassigny et al., Fund. Clin. Pharmacol, 18: 531-38, 2004. Briefly, the rabbits (2.0-2.5 kg) are anaesthetized with a pentobarbital solution (50 mg/kg) and they then receive heparin (200 IU/kg). The hearts are excised and immediately perfused, for 10-15 minutes by means of a Langendorff apparatus without recirculation with an oxygenated tyrode (calcium-free) isotonic solution (95%, 2-5% CO2) (in mM: NaCl 135, KCl 5.4, Na2PO4 0.33, MgCl2 1.0, HEPES 10, pH adjusted to 7.4 with 1N NaOH at 37° C., 280-300 mOsmol/kgH2O). Next, all the hearts are perfused for 3 minutes in the “recirculation” mode with the same calcium-free Tyrode solution (coronary flow rate, 10-15 mL/min) added with 1 mg/mL of type II collagenase and 0.28 mg/mL of XIV type protease. Finally, all the hearts are perfused in a mode without any recirculation with the same solution of Tyrode supplemented with 0.3 mM of CaCl2 for 10 min. The left ventricle is removed and cut into small pieces; cell dissociation is achieved by mild mechanical stirring. Extracellular calcium is added by increments every 15 minutes, in order to reach a physiological concentration of 1.0 mM. […]
Annexin V marking of phosphatidylserine was used as a quantitative method for measuring apoptosis by using the MiniMacs cell isolation kit (Miltenyi Biotec, Bergisch, Gladbach, Germany). […] The column is removed from the magnetic field, the cells exposing phosphatidylserine, magnetically retained, are eluted as a positive fraction and counted with a Mallassez cell counter. […]
as §1

caspase-3 = experiment: Caspase-3 activity (apoptosis) after doxorubicin; format: cell-based, rabbit; details: doxorubicin 1 μM alone, 8 hrs; control 19±9
Procedure: as §2
Caspase-3 activity is used as a quantitative method for measuring apoptosis. […] The fluorogenic substrate for measuring caspase-3 activity (DEVD) is marked with the fluorochrome, 7-amino-4-methyl coumarine (AMC), which produces […] fluorescence detectable in UV light at 360/460 nm for 210 min. […]
as §1

[3] = 3.9 mg/kg i.v. bolus in water 5 min before reperfusion, 30 min occlusion, 24 h reperfusion, mean±SEM

CC(C)CCC[C@@H](C)[C@H]1CC[C@H]2[C@@H]3CCC(=NO)[C@](C)(CCCOC(=O)CN(C)C)[C@H]3CC[C@]12C [3,5-seco-4-nor-cholestan-5-one oxime-3-N,N-dimethylglycine ester]
Area of risk (percentage of the weight of the left ventricle) (C57BL6 mice; [3]): 8 +/− 3% | Infarction size (percentage of the weight of the area of risk) (C57BL6 mice; [3]): 23 +/− 9% | Infarction size reduction (C57BL6 mice; 3.9 mg/kg i.v., versus carrier (water)): 42.5%

COc1cccc2c1C(=O)c1c(O)c3c(c(O)c1C2=O)C[C@@](O)(C(=O)CO)C[C@@H]3O[C@H]1C[C@H](N)[C@H](O)[C@H](C)O1 [doxorubicin, reference compound]
shortening of the peak relatively to the base line [1]: −53.20±7.70% | Apoptosis as % of change in annexin V marking [2]: 320% | caspase-3 activity (caspase-3): 120 ± 15 fmol/min
